Test results as given in US20260200984A1, “PEPTIDE FOR CARTILAGE REGENERATION, AND USES THEREOF” (CAREGEN CO., LTD., priority 2022, published 2026).
Read-outs that look alike come from different tables or passages of the source. Where no end group is shown, it is not given here.

Key:
[1] = system: human adipose-derived mesenchymal stem cells (AD-MSC)
Procedure: (§1) The aim was to analyze the cytotoxicity caused by the addition of Peptide-1 or Peptide-2 to human adipose-derived mesenchymal stem cells (AD-MSC) using the CCK-8 assay.
(§2) Specifically, AD-MSC cells were seeded in 96-well plates at a density of 1.5×10^3 cells/well and cultured in Dulbecco's Modified Eagle's Medium (DMEM) supplemented with 10% FBS for 24 hours. Then, the medium was replaced with DMEM medium supplemented with 5% FBS, and Peptide-1 or Peptide-2 was treated at different concentrations, respectively. Subsequently, the medium was replaced every 3 days and Peptide-1 or Peptide-2 was treated at different concentrations, respectively. To confirm CCK-8 activity, after 7 days, CCK-8 (Dojindo, CCK-8 kit) solution was added at 1/10 volume of the culture medium, and incubated for 2 hours. The culture medium was sampled and CCK-8 activity was confirmed at a wavelength of 450 nm using a microplate reader.

[2] = system: human adipose-derived mesenchymal stem cells (AD-MSC); assay: CCK-8 cytotoxicity assay in AD-MSC cells; conditions: different concentrations, 7 days, absorbance 450 nm, FIG. 1, FIG. 2
Procedure: as §1, §2

| Sequence | toxicity toward adipose-derived mesenchymal stem cells (CCK-8 activity) [1] | toxicity toward adipose-derived mesenchymal stem cells (CCK-8 activity) [2] |
| --- | --- | --- |
| QSSLRALR [Peptide-2, QSSLRALR] | did not exhibit toxicity |  |
| SHIAGGLSFHSTV [Peptide-1, SHIAGGLSFHSTV] |  | did not exhibit toxicity |
